According to patent US6362369B1, “Phthalic acid diamide derivatives fluorine-containing aniline compounds as starting material, agricultural and horticultural insecticides, and a method for application of the insecticides” (Nihon Nohyaku Co., Ltd., priority 1997, dated 2002):

Assays:
[1] = test system: diamondback moth (Plutella xylostella); experiment: Insecticidal effect on diamondback moth (Test Example 1); assay type: in vivo; details: diamondback moth; for Insecticidal effect, Test Example 1: mortality judged by criterion of Test Example 1; for Insecticidal effect (Test Example 1), judged from mortality: judged by the criterion of Test Example 1
Procedure, shortened: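 Read-out was mortality from hatched-insect counts taken 6 days after the egg-bearing cabbage seedling was immersed, graded by set criteria. Seedlings were air-dried and kept at 25° C after treatment. Groups of 10 insects, in triplicate.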

[2] = test system: rice leafroller (Cnaphalocrocis medinalis); experiment: Insecticidal effect on rice leafroller (Test Example 3); assay type: in vivo; details: 500 ppm, 25° C., humidity 70%; for Insecticidal effect, Test Example 3: rice leafroller third-instar larvae, rice lamina immersed, four days after inoculation; for Insecticidal effect (Test Example 3), judged from mortality: rice lamina dip, third-instar larvae of rice leafroller, 4 days after inoculation
Procedure, shortened: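 Groups of 10 third-instar larvae, in triplicate, are placed on air-dried lamina resting on wet filter paper. Incubation runs four days at 25° C with 70% humidity before survivors and dead are tallied.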

SMILES: Cc1cc(OC(F)(F)F)ccc1NC(=O)c1ccc(F)c(F)c1C(=O)NC(C)(C)C [compound 1284]
- Insecticidal effect, Test Example 1 [1]: A (100)
- Insecticidal effect, Test Example 3 [2]: A (100)

SMILES: CCN(CC)C(=O)c1c(C(=O)Nc2ccc(OC(F)(F)F)cc2C)ccc(F)c1F [compound 1285]
- Insecticidal effect, Test Example 1 [1]: A (100)
- Insecticidal effect, Test Example 3 [2]: A (100)

SMILES: Cc1cc(C#CC(C)(C)C)ccc1NC(=O)c1cccc(Cl)c1C(=O)NC(C)C [compound 1301]
- Insecticidal effect, Test Example 1 [1]: A (100)
- Insecticidal effect, Test Example 3 [2]: A (100)

SMILES: CCCNC(=O)c1cccc(I)c1C(=O)Nc1ccc(C(F)(F)C(F)(F)F)cc1C [compound 1304]
- Insecticidal effect, Test Example 1 [1]: A (100)
- Insecticidal effect, Test Example 3 [2]: A (100)

SMILES: CNC(=O)c1cccc(I)c1C(=O)Nc1ccc(C(F)(F)C(F)(F)F)cc1C [compound 1312]
- Insecticidal effect, Test Example 1 [1]: A (100)
- Insecticidal effect, Test Example 3 [2]: A (100)

SMILES: CCC(O)CNC(=O)c1c(Cl)cccc1C(=O)Nc1ccc(C(F)(F)C(F)(F)F)cc1C (stereo not drawn) [compound 1318]
- Insecticidal effect, Test Example 1 [1]: A (100)
- Insecticidal effect, Test Example 3 [2]: A (100)

SMILES: Cc1cc(C(F)(F)C(F)(F)F)ccc1NC(=O)c1cccc(Cl)c1C(=O)NC(C)c1ccccc1 (stereo not drawn) [compound 1321]
- Insecticidal effect, Test Example 1 [1]: A (100)
- Insecticidal effect, Test Example 3 [2]: A (100)

SMILES: Cc1cc(CCC(C)(C)C)ccc1NC(=O)c1cccc(Cl)c1C(=O)NC(C)C [compound 1323]
- Insecticidal effect, Test Example 1 [1]: A (100)
- Insecticidal effect, Test Example 3 [2]: A (100)

SMILES: Cc1cc(C#Cc2ccccc2)ccc1NC(=O)c1cccc(Cl)c1C(=O)NC(C)C [compound 1325]
- Insecticidal effect, Test Example 1 [1]: A (100)
- Insecticidal effect, Test Example 3 [2]: A (100)

SMILES: Cc1cc(C(F)(F)C(F)(F)F)ccc1NC(=O)c1cccc(Cl)c1C(=O)NCCCc1ccccc1 [compound 1331]
- Insecticidal effect, Test Example 1 [1]: A (100)
- Insecticidal effect, Test Example 3 [2]: A (100)

SMILES: Cc1cc(C(F)(F)C(F)(F)F)ccc1NC(=O)c1cccc(Cl)c1C(=O)NCc1ccc(Cl)cc1 [compound 1333]
- Insecticidal effect, Test Example 1 [1]: A (100)
- Insecticidal effect, Test Example 3 [2]: A (100)

SMILES: Cc1ccccc1CNC(=O)c1c(Cl)cccc1C(=O)Nc1ccc(C(F)(F)C(F)(F)F)cc1C [compound 1337]
- Insecticidal effect, Test Example 1 [1]: A (100)
- Insecticidal effect, Test Example 3 [2]: A (100)

SMILES: Cc1cccc(CNC(=O)c2c(Cl)cccc2C(=O)Nc2ccc(C(F)(F)C(F)(F)F)cc2C)c1 [compound 1339]
- Insecticidal effect, Test Example 1 [1]: A (100)
- Insecticidal effect, Test Example 3 [2]: A (100)

SMILES: Cc1cccc(CNC(=O)c2cccc(Cl)c2C(=O)Nc2ccc(C(F)(F)C(F)(F)F)cc2C)c1 [compound 1340]
- Insecticidal effect, Test Example 1 [1]: A (100)
- Insecticidal effect, Test Example 3 [2]: A (100)

SMILES: COc1ccccc1CNC(=O)c1c(Cl)cccc1C(=O)Nc1ccc(C(F)(F)C(F)(F)F)cc1C [compound 1343]
- Insecticidal effect, Test Example 1 [1]: A (100)
- Insecticidal effect, Test Example 3 [2]: A (100)

SMILES: Cc1cc(C(F)(F)C(F)(F)F)ccc1NC(=O)c1cccc(Cl)c1C(=O)NCc1ccc(Cl)c(Cl)c1 [compound 1351]
- Insecticidal effect, Test Example 1 [1]: A (100)
- Insecticidal effect, Test Example 3 [2]: A (100)

SMILES: Cc1cc(C(F)(F)C(F)(F)F)ccc1NC(=O)c1c(Cl)cccc1C(=O)NCc1ccc(Cl)c(Cl)c1 [compound 1352]
- Insecticidal effect, Test Example 1 [1]: A (100)
- Insecticidal effect, Test Example 3 [2]: A (100)

SMILES: Cc1cc(C(F)(F)C(F)(F)F)ccc1NC(=O)c1cccc(Cl)c1C(=O)NCCc1cccc(Cl)c1 [compound 1358]
- Insecticidal effect, Test Example 1 [1]: A (100)
- Insecticidal effect, Test Example 3 [2]: C (89-80)

SMILES: Cc1cc(C(F)(F)C(F)(F)F)ccc1NC(=O)c1cccc(Cl)c1C(=O)NCCc1ccc(Cl)cc1 [compound 1360]
- Insecticidal effect, Test Example 1 [1]: A (100)
- Insecticidal effect, Test Example 3 [2]: C (89-80)

SMILES: Cc1cc(C(F)(F)C(F)(F)F)ccc1NC(=O)c1cccc(Cl)c1C(=O)NCCOc1cccc(Cl)c1 [compound 1370]
- Insecticidal effect, Test Example 1 [1]: A (100)
- Insecticidal effect, Test Example 3 [2]: A (100)

SMILES: Cc1cc(C(F)(F)C(F)(F)F)ccc1NC(=O)c1ccccc1C(=O)NC(C)(C)CO [compound 1381]
- Insecticidal effect, Test Example 1 [1]: A (100)
- Insecticidal effect, Test Example 3 [2]: C (89-80)

SMILES: Cc1cc(C(F)(F)C(F)(F)F)ccc1NC(=O)c1cccc(Cl)c1C(=O)Nc1ccco1 [compound 1390]
- Insecticidal effect, Test Example 1 [1]: A (100)
- Insecticidal effect, Test Example 3 [2]: A (100)

SMILES: Cc1cc(C(F)(F)C(F)(F)F)ccc1NC(=O)c1cccc(Cl)c1C(=O)NC1CCCO1 (stereo not drawn) [compound 1392]
- Insecticidal effect, Test Example 1 [1]: A (100)
- Insecticidal effect, Test Example 3 [2]: A (100)

SMILES: Cc1cc(C(F)(F)C(F)(F)F)ccc1NC(=O)c1c(Cl)cccc1C(=O)NC1CCCO1 (stereo not drawn) [compound 1393]
- Insecticidal effect, Test Example 1 [1]: A (100)
- Insecticidal effect, Test Example 3 [2]: A (100)

SMILES: Cc1cc(C(F)(F)C(F)(F)F)ccc1NC(=O)c1cccc(Cl)c1C(=O)NCc1ccncc1 [compound 1394]
- Insecticidal effect, Test Example 1 [1]: A (100)
- Insecticidal effect, Test Example 3 [2]: A (100)

SMILES: CC(C)NC(=O)c1c(I)cccc1C(=O)Nc1ccc(Br)cc1C(F)(F)C(F)(F)F [compound 1409]
- Insecticidal effect, Test Example 1 [1]: A (100)
- Insecticidal effect, Test Example 3 [2]: A (100)

SMILES: CC(C)NC(=O)c1c(I)cccc1C(=O)Nc1ccc(C(F)(F)C(F)(F)F)cc1C(F)(F)C(F)(F)F [compound 1410]
- Insecticidal effect, Test Example 1 [1]: A (100)
- Insecticidal effect, Test Example 3 [2]: A (100)

SMILES: C#CCNC(=O)c1ccccc1C(=O)Nc1ccc(C(F)(F)C(F)(F)F)cc1C [compound 1411]
- Insecticidal effect, Test Example 1 [1]: A (100)
- Insecticidal effect, Test Example 3 [2]: A (100)

SMILES: Cc1cc(C(F)(F)C(F)(F)F)ccc1NC(=O)c1c(Cl)cccc1C(=O)NC(C)(C)CO [compound 1415]
- Insecticidal effect, Test Example 1 [1]: A (100)
- Insecticidal effect, Test Example 3 [2]: A (100)

SMILES: Cc1cc(C(F)(F)C(F)(F)F)ccc1NC(=O)c1cccc(Cl)c1C(=O)NCc1cccnc1 [compound 1419]
- Insecticidal effect, Test Example 1 [1]: A (100)
- Insecticidal effect, Test Example 3 [2]: A (100)

SMILES: Cc1cc(C(F)(F)C(F)(F)F)ccc1NC(=O)c1c(Cl)cccc1C(=O)NCc1cccnc1 [compound 1420]
- Insecticidal effect, Test Example 1 [1]: A (100)
- Insecticidal effect, Test Example 3 [2]: A (100)

SMILES: Cc1cc(C(F)(F)C(F)(F)F)ccc1NC(=O)c1c(I)cccc1C(=O)N(C)Cc1ccccc1 [compound 1439]
- Insecticidal effect, Test Example 1 [1]: A (100)
- Insecticidal effect, Test Example 3 [2]: C (89-80)

SMILES: CCC(CO)NC(=O)c1cccc(Cl)c1C(=O)Nc1ccc(C(F)(F)C(F)(F)F)cc1C (stereo not drawn) [compound 1441]
- Insecticidal effect, Test Example 1 [1]: A (100)
- Insecticidal effect, Test Example 3 [2]: A (100)

SMILES: C#CCNC(=O)c1c(I)cccc1C(=O)Nc1ccc(OC(F)F)cc1C [compound 1456]
- Insecticidal effect (Test Example 1), judged from mortality [1]: A (100)
- Insecticidal effect (Test Example 3), judged from mortality [2]: A (100)

SMILES: CCN(Cc1ccccc1)C(=O)c1c(Cl)cccc1C(=O)Nc1ccc(C(F)(F)C(F)(F)F)cc1C [compound 1457]
- Insecticidal effect (Test Example 1), judged from mortality [1]: A (100)
- Insecticidal effect (Test Example 3), judged from mortality [2]: A (100)

SMILES: Cc1cc(C(F)(F)C(F)(F)F)ccc1NC(=O)c1c(Cl)cccc1C(=O)N[C@H](C)CO [compound 1461]
- Insecticidal effect (Test Example 1), judged from mortality [1]: A (100)
- Insecticidal effect (Test Example 3), judged from mortality [2]: A (100)

SMILES: Cc1cc(C(F)(F)C(F)(F)F)ccc1NC(=O)c1c(I)cccc1C(=O)NC(C)CO (stereo not drawn) [compound 1465]
- Insecticidal effect (Test Example 1), judged from mortality [1]: A (100)
- Insecticidal effect (Test Example 3), judged from mortality [2]: A (100)

SMILES: Cc1cc(C(F)(F)C(F)(F)F)ccc1NC(=O)c1cccc(F)c1C(=O)NCc1ccccc1 [compound 1470]
- Insecticidal effect (Test Example 1), judged from mortality [1]: A (100)
- Insecticidal effect (Test Example 3), judged from mortality [2]: A (100)

SMILES: CCNC(=O)c1c(Cl)cccc1C(=O)Nc1ccc(C(F)(F)C(F)(F)F)cc1F [compound 1488]
- Insecticidal effect (Test Example 1), judged from mortality [1]: A (100)
- Insecticidal effect (Test Example 3), judged from mortality [2]: A (100)

SMILES: CCNC(=O)c1c(Cl)cccc1C(=O)Nc1ccc(C(F)(F)C(F)(F)C(F)(F)F)cc1F [compound 1490]
- Insecticidal effect (Test Example 1), judged from mortality [1]: A (100)
- Insecticidal effect (Test Example 3), judged from mortality [2]: A (100)

SMILES: CCCNC(=O)c1c(Cl)cccc1C(=O)Nc1ccc(C(F)(F)C(F)(F)F)cc1Cl [compound 1492]
- Insecticidal effect (Test Example 1), judged from mortality [1]: A (100)
- Insecticidal effect (Test Example 3), judged from mortality [2]: A (100)

SMILES: CCCNC(=O)c1c(Cl)cccc1C(=O)Nc1ccc(C(F)(F)C(F)(F)C(F)(F)F)cc1F [compound 1493]
- Insecticidal effect (Test Example 1), judged from mortality [1]: A (100)
- Insecticidal effect (Test Example 3), judged from mortality [2]: A (100)

SMILES: CCNC(=O)c1c(F)cccc1C(=O)Nc1ccc(C(F)(F)C(F)(F)F)cc1F [compound 1510]
- Insecticidal effect (Test Example 1), judged from mortality [1]: A (100)
- Insecticidal effect (Test Example 3), judged from mortality [2]: A (100)

SMILES: CC(C)NC(=O)c1c(F)cccc1C(=O)Nc1ccc(C(F)(F)C(F)(F)F)cc1F [compound 1514]
- Insecticidal effect (Test Example 1), judged from mortality [1]: A (100)
- Insecticidal effect (Test Example 3), judged from mortality [2]: A (100)

SMILES: CC(C)NC(=O)c1cccc(F)c1C(=O)Nc1ccc(C(F)(F)C(F)(F)F)cc1Cl [compound 1517]
- Insecticidal effect (Test Example 1), judged from mortality [1]: A (100)
- Insecticidal effect (Test Example 3), judged from mortality [2]: A (100)

SMILES: Cc1cc(OC(F)(F)F)ccc1NC(=O)c1cccc(I)c1C(=O)NC(C)(C)CO [compound 1519]
- Insecticidal effect (Test Example 1), judged from mortality [1]: A (100)
- Insecticidal effect (Test Example 3), judged from mortality [2]: A (100)

SMILES: Cc1cc(C(F)(F)C(F)(F)F)ccc1NC(=O)c1cccc(Cl)c1C(=O)NCc1ccccc1C(F)(F)F [compound 1523]
- Insecticidal effect (Test Example 1), judged from mortality [1]: A (100)
- Insecticidal effect (Test Example 3), judged from mortality [2]: A (100)

SMILES: CCN(CC)C(=O)c1c(F)cccc1C(=O)Nc1ccc(OC(F)(F)F)cc1C [compound 1527]
- Insecticidal effect (Test Example 1), judged from mortality [1]: A (100)
- Insecticidal effect (Test Example 3), judged from mortality [2]: A (100)
